Data published in ChEMBL document CHEMBL4651402, “Screening of ~5500 FDA-approved drugs and clinical candidates for anti-SARS-CoV-2 activity” (2021).

Tested on: SARS-CoV-2
Experiment: microbe, parasite or virus in culture
Settings: Severe acute respiratory syndrome coronavirus 2, Vero C1008, 48 h

| SMILES | IC50 [µM] | IC50 (read-out: pIC50 (converted)) [µM] |
| --- | --- | --- |
| NCCCC[C@H](NC(=O)[C@@H](Cc1cc(Br)c(O)c(Br)c1)NC(=O)N1CCC(N2Cc3ccccc3NC2=O)CC1)C(=O)N1CCN(c2ccncc2)CC1 [OLCEGEPANT] | > 20 | > 20 |
| CO[C@H]1C[C@H](O[C@H]2[C@H](C)[C@@H](O[C@@H]3O[C@H](C)C[C@H](N(C)C)[C@H]3O)[C@@H](C)C[C@@]3(CO3)C(=O)[C@H](C)[C@@H](O)[C@@H](C)[C@@H](C)OC(=O)[C@@H]2C)O[C@@H](C)[C@@H]1O [OLEANDOMYCIN] | > 20 | > 20 |
| CC1(C)CC[C@]2(C(=O)O)CC[C@]3(C)C(=CC[C@@H]4[C@@]5(C)CC[C@H](O)C(C)(C)[C@@H]5CC[C@]43C)[C@@H]2C1 [OLEANOLIC_ACID] | > 20 | > 20 |
| CCCCCCCC/C=C\CCCCCCCC(=O)O [OLEIC ACID] | > 20 | > 20 |
| C/C=C1/[C@H](O[C@@H]2O[C@H](CO)[C@@H](O)[C@H](O)[C@H]2O)OC=C(C(=O)OC)[C@H]1CC(=O)OCCc1ccc(O)c(O)c1 [OLEUROPEIN] | > 20 | > 20 |
| OC[C@H]1O[C@@H](S[C@@H]2O[C@H](CO)[C@H](O)[C@H](n3cc(-c4cccc(F)c4)nn3)[C@H]2O)[C@H](O)[C@@H](n2cc(-c3cccc(F)c3)nn2)[C@H]1O [OLITIGALTIN] | > 20 | > 20 |
| CCCc1nc(C(C)(C)O)c(C(=O)O)n1Cc1ccc(-c2ccccc2-c2nnn[nH]2)cc1 [OLMESARTAN] | > 20 | > 20 |
| CN(C)CC/C=C1/c2ccccc2COc2ccc(CC(=O)O)cc21 [OLOPATADINE] | > 20 | > 20 |
| CC(C)(C)[C@@H](CO)NC(=O)c1nn(-c2c[n+]([O-])ccn2)c2c1C[C@@H]1C[C@H]21 [OLORINAB] | > 20 | > 20 |
| O=C(O)c1cc(/N=N/c2ccc(O)c(C(=O)O)c2)ccc1O [OLSALAZINE] | > 20 | > 20 |
| Cc1c(-c2cnccn2)ssc1=S [OLTIPRAZ] | > 20 | > 20 |
| COC(=O)C[C@](O)(CCCC(C)(C)O)C(=O)O[C@@H]1C(OC)=C[C@]23CCCN2CCc2cc4c(cc2[C@H]13)OCO4 [OMACETAXINE MEPESUCCINATE] | > 20 | > 20 |
| O=C(N[C@H]1CCS[C@H]2CCC[C@@H](C(=O)O)N2C1=O)[C@@H](S)Cc1ccccc1 [OMAPATRILAT] | > 20 | > 20 |
| COC(=O)N1CCN(Cc2cccc(NC(=O)Nc3ccc(C)nc3)c2F)CC1 [OMECAMTIV MECARBIL] | > 20 | > 20 |
| COc1ccc2[nH]c([S+]([O-])Cc3ncc(C)c(OC)c3C)nc2c1 (centres undefined) [OMEPRAZOLE] | > 20 | > 20 |
| CC(C)c1cc(C(=O)N2Cc3ccc(CN4CCN(C)CC4)cc3C2)c(O)cc1O [ONALESPIB] | > 20 | > 20 |
| Cc1nccn1CC1CCc2c(c3ccccc3n2C)C1=O (centres undefined) [ONDANSETRON] | > 20 | > 20 |
| CN1CCN(c2ccc(OC(F)(F)F)c(Nc3ncc4c(n3)-c3c(c(C(N)=O)nn3CCO)CC4)c2)CC1 [ONVANSERTIB] | > 20 | > 20 |
| OCCN1CCN(CCCN2c3ccccc3C=Cc3ccccc32)CC1 [OPIPRAMOL] | > 20 | > 20 |
| Clc1ccc(C(Cn2ccnc2)OCc2c(Cl)cccc2Cl)cc1 (centres undefined) [ORCONAZOLE] | > 20 | > 20 |
| COc1ccc2c(c1)CC[C@H](CN(C)CC(=O)O)[C@@H]2c1ccccc1 [ORG-25935] | > 20 | > 20 |
| C=C1C(=O)[C@]23[C@H](O)[C@H]1CC[C@H]2[C@@]12CO[C@]3(O)[C@@H](O)[C@@H]1C(C)(C)CC[C@@H]2O [ORIDONIN] | > 20 | > 20 |
| CN[C@H](CC(C)C)C(=O)N[C@H]1C(=O)N[C@@H](CC(N)=O)C(=O)N[C@H]2C(=O)N[C@H]3C(=O)N[C@H](C(=O)N[C@H](C(=O)O)c4cc(O)cc(O)c4-c4cc3ccc4O)[C@H](O[C@H]3C[C@](C)(N)[C@@H](O)[C@H](C)O3)c3ccc(c(Cl)c3)Oc3cc2cc(c3O[C@@H]2O[C@H](CO)[C@@H](O)[C@H](O)[C@H]2O[C@H]2C[C@](C)(NCc3ccc(-c4ccc(Cl)cc4)cc3)[C@@H](O)[C@H](C)O2)Oc2ccc(cc2Cl)[C@H]1O [ORITAVANCIN] | > 20 | > 20 |

| SMILES | IC50 [µM] | IC50 (read-out: pIC50 (converted)) [µM] |
| --- | --- | --- |
| CCCCCCCCCCC[C@@H](C[C@@H]1OC(=O)[C@H]1CCCCCC)OC(=O)[C@H](CC(C)C)NC=O [ORLISTAT] | > 20 | > 20 |
| Cc1ncc([N+](=O)[O-])n1CC(O)CCl (centres undefined) [ORNIDAZOLE] | > 20 | > 20 |
| NCCCC(N)C(=O)O (centres undefined) [ORNITHINE aKETOGLUTARATE] | > 10 | > 10 |
| O=C(O)c1cc(=O)[nH]c(=O)[nH]1 [OROTIC ACID] | > 20 | > 20 |
| Cc1ccccc1C(OCCN(C)C)c1ccccc1 (centres undefined) [ORPHENADRINE] | > 20 | > 20 |
| CCOC(=O)c1c(C)cc(O)cc1O [ORSELLINIC ACID, ETHYL ESTER] | > 20 | > 20 |
| CC(C)=CCc1c2c(c3occ(-c4ccc(O)cc4)c(=O)c3c1O)C=CC(C)(C)O2 [OSAJIN] | > 20 | > 20 |
| O=C(Nc1ccc(O)cc1)c1ccccc1O [OSALMID] | > 20 | > 20 |
| CC(=O)N(C)C1(c2ccccc2)CCN(CCC[C@]2(c3ccc(Cl)c(Cl)c3)CCCN(C(=O)c3ccccc3)C2)CC1 [OSANETANT] | > 20 | > 20 |
| CCOC(=O)C1=C[C@@H](OC(CC)CC)[C@H](NC(C)=O)[C@@H](N)C1 [OSELTAMIVIR] | > 20 | > 20 |
| COc1cccc2cc(-c3nc([C@H]4CC[C@H](C(=O)O)CC4)n4ncnc(N)c34)[nH]c12 [OSI-027] | > 20 | > 20 |
| O=C(Nc1ccc(OC(F)(F)F)cc1)c1sccc1NCc1ccnc2ccccc12 [OSI-930] | > 20 | > 20 |
| CCN(CC)CC1CCCCN1CC(=O)N1c2ccccc2C(=O)Nc2cccnc21 (centres undefined) [OTENZEPAD] | > 20 | > 20 |
| C[C@@H]1O[C@@H](O[C@H]2C[C@@H](O)[C@]3(CO)[C@H]4[C@H](O)C[C@]5(C)[C@@H](C6=CC(=O)OC6)CC[C@]5(O)[C@@H]4CC[C@]3(O)C2)[C@H](O)[C@H](O)[C@H]1O [OUABAIN] | > 20 | > 20 |
| CC(=O)N1C[C@H](O)C[C@H]1C(=O)O [OXACEPROL] | > 20 | > 20 |
| O=C(O)C(=O)O [OXALIC ACID] | > 20 | > 20 |
| O=C(O)CC(=O)C(=O)O [OXALOACETATE] | > 20 | > 20 |
| COc1ccc2c(c1)c(CC(=O)NO)c(C)n2C(=O)c1ccc(Cl)cc1 [OXAMETACIN] | > 20 | > 20 |
| CC(C)NCC1CCc2cc(CO)c([N+](=O)[O-])cc2N1 (centres undefined) [OXAMNIQUINE] | > 20 | > 20 |
| C[C@]12COC(=O)C[C@@H]1CC[C@@H]1[C@@H]2CC[C@@]2(C)[C@H]1CC[C@]2(C)O [OXANDROLONE] | > 20 | > 20 |
| O=C1Nc2ccc(Cl)cc2C(c2ccccc2)=NC1O (centres undefined) [OXAZEPAM] | > 20 | > 20 |
| NC(=O)N1c2ccccc2CC(=O)c2ccccc21 [OXCARBAZEPINE] | > 20 | > 20 |
| CNCC(O)c1ccc(O)cc1 (centres undefined) [OXEDRINE] | > 20 | > 20 |

| SMILES | IC50 [µM] | IC50 (read-out: pIC50 (converted)) [µM] |
| --- | --- | --- |
| CCN(CC)CCOCCOC(=O)C(CC)(CC)c1ccccc1 [OXELADIN] | > 20 | > 20 |
| COC(=O)Nc1nc2cc([S+]([O-])c3ccccc3)ccc2[nH]1 (centres undefined) [OXFENDAZOLE] | > 20 | > 20 |
| CCCOc1ccc2[nH]c(NC(=O)OC)nc2c1 [OXIBENDAZOLE] | > 20 | > 20 |
| Clc1ccc(CO/N=C(\Cn2ccnc2)c2ccc(Cl)cc2Cl)c(Cl)c1 [OXICONAZOLE] | > 20 | > 20 |
| O=c1[nH]c2ccccc2n1C1CCN(CCOc2ccccc2)CC1 [OXIPEROMIDE] | > 20 | > 20 |
| Cc1[nH]cnc1CSCCNc1nc(=O)c(Cc2ccc3c(c2)OCO3)c[nH]1 [OXMETIDINE] | > 20 | > 20 |
| CCN(CC)CCc1nc(-c2ccccc2)no1 [OXOLAMINE] | > 20 | > 20 |
| CCn1cc(C(=O)O)c(=O)c2cc3c(cc21)OCO3 [OXOLINIC ACID] | > 20 | > 20 |
| O=C1CCCN1CC#CCN1CCCC1 [OXOTREMORINE] | > 20 | > 20 |
| C=CCOc1ccccc1OCC(O)CNC(C)C (centres undefined) [OXPRENOLOL] | > 20 | > 20 |
| O=C(O)CCCO [OXYBATE] | > 20 | > 20 |
| COc1ccc(C(=O)c2ccccc2)c(O)c1 [OXYBENZONE] | > 20 | > 20 |
| CCN(CC)CC#CCOC(=O)C(O)(c1ccccc1)C1CCCCC1 (centres undefined) [OXYBUTYNIN] | > 20 | > 20 |
| O=C(O)c1c(O)c(-c2ccccc2)nc2ccccc12 [OXYCINCHOPHEN] | > 20 | > 20 |
| O=C(Nc1cc(Cl)cc(Cl)c1O)c1c(O)c(Cl)cc(Cl)c1Cl [OXYCLOZANIDE] | > 20 | > 20 |
| COc1ccc2c3c1O[C@H]1C(=O)CC[C@@]4(O)[C@@H](C2)N(C)CC[C@]314 [OXYCODONE] | > 20 | > 20 |
| Cc1cc(C(C)(C)C)c(O)c(C)c1CC1=NCCN1 [OXYMETAZOLINE] | > 20 | > 20 |
| COc1cc2[nH]c(C)c(CCN3CCN(c4ccccc4)CC3)c2cc1OC [OXYPERTINE] | > 20 | > 20 |
| CCCCC1C(=O)N(c2ccccc2)N(c2ccc(O)cc2)C1=O (centres undefined) [OXYPHENBUTAZONE ANHYDROUS] | > 20 | > 20 |
| CC(=O)Oc1ccc(C2(c3ccc(OC(C)=O)cc3)C(=O)Nc3ccccc32)cc1 [OXYPHENISATIN ACETATE] | > 20 | > 20 |
| O=C1Nc2ccccc2C1(c1ccc(O)cc1)c1ccc(O)cc1 [OXYPHENISATINE] | > 20 | > 20 |
